Test results reported in the supplement of paper PMC11061612.

Tests used:
[1] = test system: CAL-120 (Breast Carcinoma); experiment: Bliss excess, mean over the matrix (fraction); higher = more synergy
Procedure, shortened: (§1)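 Cell lines grown in DMEM/F12 or RPMI with 10% FBS were plated in 1536-well plates and held 24 hours at 37°C, 5% CO2 before 72 hours of exposure to two-drug dose matrices, with DMSO typically at 0.2%. CellTiter-Glo 2.0 luminescence gave viability, which was converted to inhibition. Vehicle wells were set to 0 and blank wells to 1. Combination Emax is the second-highest inhibition in the matrix, and Bliss excess is the observed combination effect minus the expected EA + EB − EA·EB, where EA and EB are the single-agent effects.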

[2] = test system: LB996-RCC (Kidney Carcinoma); experiment: as above
Procedure, shortened: as §1

[3] = test system: A2058 (Melanoma); experiment: as above
Procedure, shortened: as §1

[4] = test system: PSN1 (Pancreatic Carcinoma); experiment: combination Emax (second highest fraction inhibited in the dose matrix, 72 h); higher = more inhibition; extreme values may be limits of the assay
Procedure, shortened: as §1

[5] = test system: OPM-2 (Plasma Cell Myeloma); experiment: as above
Procedure, shortened: as §1

[6] = test system: SU-DHL-10 (B-Cell Non-Hodgkin's Lymphoma); experiment: as above
Procedure, shortened: as §1

[7] = test system: PANC-03-27 (Pancreatic Carcinoma); experiment: as above
Procedure, shortened: as §1

[8] = test system: FADU (Head and Neck Carcinoma); experiment: as above
Procedure, shortened: as §1

[9] = test system: NCI-H446 (Small Cell Lung Carcinoma); experiment: as above
Procedure, shortened: as §1

[10] = test system: IST-MES1 (Mesothelioma); experiment: as above
Procedure, shortened: as §1

[11] = test system: PC-3_[JPC-3] (Lung Adenocarcinoma); experiment: as above
Procedure, shortened: as §1

[12] = test system: WM278 (Melanoma); experiment: as above
Procedure, shortened: as §1

[13] = test system: COLO-680N (Esophageal Squamous Cell Carcinoma); experiment: as above
Procedure, shortened: as §1

[14] = test system: SHP-77 (Small Cell Lung Carcinoma); experiment: as above
Procedure, shortened: as §1

[15] = test system: GB-1 (Glioblastoma); experiment: as above
Procedure, shortened: as §1

[16] = test system: RERF-LC-Sq1 (Squamous Cell Lung Carcinoma); experiment: as above
Procedure, shortened: as §1

[17] = test system: NCI-H23 (Lung Adenocarcinoma); experiment: as above
Procedure, shortened: as §1

[18] = test system: NCI-H2342 (Lung Adenocarcinoma); experiment: as above
Procedure, shortened: as §1

[19] = test system: MFE-280 (Endometrial Carcinoma); experiment: as above
Procedure, shortened: as §1

[20] = test system: REH (B-Lymphoblastic Leukemia); experiment: as above
Procedure, shortened: as §1
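For Bliss excess, mean over the matrix in this document: after 72 h of two-drug dosing.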

Compound	Bliss excess [1]	Bliss excess [2]	Bliss excess [3]	combination Emax [4]	combination Emax [5]	combination Emax [6]	combination Emax [7]	combination Emax [8]	combination Emax [9]	combination Emax [10]	combination Emax [11]	combination Emax [12]	combination Emax [13]	combination Emax [14]	combination Emax [15]	combination Emax [16]	combination Emax [17]	combination Emax [18]	combination Emax [19]	combination Emax [20]
CCN(CCO)CCCOc1ccc2c(Nc3cc(CC(=O)Nc4cccc(F)c4)[nH]n3)ncnc2c1 [AZD2811] + C=CCn1c(=O)c2cnc(Nc3ccc(N4CCN(C)CC4)cc3)nc2n1-c1cccc(C(C)(C)O)n1 [AZD1775] (first compound max 1 µM, partner max 1 µM)	-0.0576	0.0623	-0.0059	0.401	0.809	1	0.899	0.608	0.87	0.27	0.413	0.171	0.178	0.415	0.332	0.68	0.829	0.262	0.521	0.741
CCN(CCO)CCCOc1ccc2c(Nc3cc(CC(=O)Nc4cccc(F)c4)[nH]n3)ncnc2c1 [AZD2811] + C[C@@H]1COCCN1C2=NC(=NC(=C2)C3(CC3)[S@](=N)(=O)C)C4=C5C=CNC5=NC=C4 [AZD6738] (first compound max 1 µM, 7x7, partner max 10 µM)	-0.0464	0.0304	0.0067	0.397	0.71	0.985	0.837	0.654	0.869	0.345	0.304	0.332	0.309	0.496	0.366	0.791	0.785	0.213	0.436	0.787
CCN(CCO)CCCOc1ccc2c(Nc3cc(CC(=O)Nc4cccc(F)c4)[nH]n3)ncnc2c1 [AZD2811] + O=C(c1cc(Cc2n[nH]c(=O)c3ccccc23)ccc1F)N1CCN(C(=O)C2CC2)CC1 [Olaparib] (first compound max 1 µM, 7x7, partner max 10 µM)	0.0019	0.025	0.0093	0.251	0.363	0.745	0.379	0.299	0.81	0.29	0.205	0.166	0.196	0.185	0.194	0.219	0.235	0.166	0.339	0.487
CN(CCO)CC[C@H](CSc1ccccc1)Nc1ccc(S(=O)(=O)NC(=O)c2ccc(N3CCC([C@@H](O)c4ccccc4-c4ccc(Cl)cc4)CC3)cc2)cc1S(=O)(=O)C(F)(F)F [AZD4320] + C=CCn1c(=O)c2cnc(Nc3ccc(N4CCN(C)CC4)cc3)nc2n1-c1cccc(C(C)(C)O)n1 [AZD1775] (first compound max 1 µM, partner max 1 µM)	0.0158	0.0405	0.0066	0.592	0.955	0.992	0.985	0.453	0.963	0.461	0.411	0.765	0.223	0.65	0.223	0.683	0.832	0.38	0.953	1
CN(CCO)CC[C@H](CSc1ccccc1)Nc1ccc(S(=O)(=O)NC(=O)c2ccc(N3CCC([C@@H](O)c4ccccc4-c4ccc(Cl)cc4)CC3)cc2)cc1S(=O)(=O)C(F)(F)F [AZD4320] + CCN(CCO)CCCOc1ccc2c(Nc3cc(CC(=O)Nc4cccc(F)c4)[nH]n3)ncnc2c1 [AZD2811] (first compound max 1 µM, 7x7, partner max 1 µM)	0.0227	0.0389	0.0723	0.349	0.693	0.759	0.638	0.245	0.991	0.213	0.147	0.635	0.137	0.65	0.117	0.275	0.216	0.384	0.888	1
CN(CCO)CC[C@H](CSc1ccccc1)Nc1ccc(S(=O)(=O)NC(=O)c2ccc(N3CCC([C@@H](O)c4ccccc4-c4ccc(Cl)cc4)CC3)cc2)cc1S(=O)(=O)C(F)(F)F [AZD4320] + CN(C)CCCOc1ccc(-c2ccc3ncc4c(c3c2)n(C2CCOCC2)c(=O)n4C)cn1 [AZD0156] (first compound max 1 µM, 7x7, partner max 1 µM)	-0.0225	-0.0541	-0.0134	0.315	0.687	0.144	0.33	0.124	0.663	0.104	0.238	0.568	0.137	0.585	0.0923	0.194	0.104	0.27	0.891	1
CN(CCO)CC[C@H](CSc1ccccc1)Nc1ccc(S(=O)(=O)NC(=O)c2ccc(N3CCC([C@@H](O)c4ccccc4-c4ccc(Cl)cc4)CC3)cc2)cc1S(=O)(=O)C(F)(F)F [AZD4320] + C[C@@H]1COCCN1C2=NC(=NC(=C2)C3(CC3)[S@](=N)(=O)C)C4=C5C=CNC5=NC=C4 [AZD6738] (first compound max 1 µM, 7x7, partner max 10 µM)	-0.0313	-0.0179	-0.0088	0.453	0.927	0.899	0.926	0.583	0.941	0.296	0.375	0.789	0.346	0.662	0.55	0.791	0.85	0.377	0.88	1
CN(CCO)CC[C@H](CSc1ccccc1)Nc1ccc(S(=O)(=O)NC(=O)c2ccc(N3CCC([C@@H](O)c4ccccc4-c4ccc(Cl)cc4)CC3)cc2)cc1S(=O)(=O)C(F)(F)F [AZD4320] + C[C@@H](Nc1cc(F)cc(F)c1)c1cc(C(=O)N(C)C)cc2c(=O)cc(N3CCOCC3)oc12 [AZD8186] (first compound max 1 µM, 7x7, partner max 3 µM)	0.0037	0.0394	0.0157	0.487	0.589	0.81	0.564	0.846	0.811	0.325	0.562	0.85	0.243	0.53	0.548	0.274	0.335	0.443	0.864	1
CN(CCO)CC[C@H](CSc1ccccc1)Nc1ccc(S(=O)(=O)NC(=O)c2ccc(N3CCC([C@@H](O)c4ccccc4-c4ccc(Cl)cc4)CC3)cc2)cc1S(=O)(=O)C(F)(F)F [AZD4320] + Cc1cc2ncnn2cc1Nc1ncc2c(n1)n(C1CCOCC1)c(=O)n2C [AZD7648] (first compound max 1 µM, 7x7, partner max 10 µM)	-0.0367	-0.0232	-0.0231	0.315	0.71	0.474	0.177	0.12	0.699	0.113	0.243	0.555	0.0933	0.491	0.17	0.18	0.156	0.27	0.774	1
COc1nnc2ccc(N3CCC(c4ccc(OCCN5CCN(C)C(=O)[C@H]5C)cc4)CC3)nn12 [AZD5153] + C=CCn1c(=O)c2cnc(Nc3ccc(N4CCN(C)CC4)cc3)nc2n1-c1cccc(C(C)(C)O)n1 [AZD1775] (first compound max 1 µM, partner max 1 µM)	-0.0176	-0.052	-0.0175	0.54	1	1	0.604	0.592	0.962	0.576	0.58	0.581	0.353	0.66	0.641	0.743	0.963	0.711	0.383	0.926
COc1nnc2ccc(N3CCC(c4ccc(OCCN5CCN(C)C(=O)[C@H]5C)cc4)CC3)nn12 [AZD5153] + CC1(C)CCC(CN2CCN(c3ccc(C(=O)NS(=O)(=O)c4ccc(NCC5CCOCC5)c([N+](=O)[O-])c4)c(Oc4cnc5[nH]ccc5c4)c3)CC2)=C(c2ccc(Cl)cc2)C1 [Venetoclax] (first compound max 1 µM, 7x7, partner max 1 µM)	-0.0434	-0.0178	-0.0876	0.334	1	1	0.255	0.521	0.858	0.591	0.364	0.447	0.344	0.405	0.256	0.52	0.651	0.315	0.38	0.911
COc1nnc2ccc(N3CCC(c4ccc(OCCN5CCN(C)C(=O)[C@H]5C)cc4)CC3)nn12 [AZD5153] + CCN(CCO)CCCOc1ccc2c(Nc3cc(CC(=O)Nc4cccc(F)c4)[nH]n3)ncnc2c1 [AZD2811] (first compound max 1 µM, 7x7, partner max 1 µM)	0.0045	-0.106	0.0568	0.566	1	1	0.179	0.533	0.962	0.653	0.425	0.466	0.357	0.432	0.243	0.555	0.666	0.433	0.348	0.903
